Values of other authors, collected in patent US12636263B2, “Carotenoid compound coming from plant and containing natural astaxanthin, preparation method therefor, and composition” (Zhejiang Medicine Co., Ltd. Xinchang Pharmaceutical Factory, priority 2013, dated 2026).

Columns and labels:
[1] = in animal body
[2] = versus natural VE
[3] = in vivo; Johnson and An, Crit. Rev. Biotechnol, 1991

Row | bioavailability, higher than that of (3 R, 3 R)′-configuration [1] [wt %] | bioavailability, higher than that of astaxanthin in the form of fatty acid ester [3] | Compound | oxidizability (antioxidant) relative to natural VE [2] [times]
1 | 15 | – | CC1=C(/C=C/C(C)=C/C=C/C(C)=C/C=C/C=C(C)/C=C/C=C(C)/C=C/C2=C(C)C(=O)[C@@H](O)CC2(C)C)C(C)(C)C[C@H](O)C1=O [(3 S, 3′S)-configuration, all-trans (3S, 3′S)-astaxanthin] | –
2 | – | higher than 15% | CC1=C(/C=C/C(C)=C/C=C/C(C)=C/C=C/C=C(C)/C=C/C=C(C)/C=C/C2=C(C)C(=O)C(O)CC2(C)C)C(C)(C)CC(O)C1=O (stereo not drawn) [astaxanthin, 3,3′-dihydroxy-4,4′-diketo-β,β′-carotene] | 1000
